Assay results from patent publication US10407409B2, “6-(5-hydroxy-1H-pyrazol-1-yl)nicotinamide inhibitors of PHD” (Takeda Pharmaceutical Company Limited, priority 2013, dated 2019).

Experiments:
[1] = biological target: PHD2 enzyme (residues 181-417) (Homo sapiens (Human), UniProt Q9GZT9); assay: Inhibition of PHD enzyme (LC/MS peptide hydroxylation assay); type: biochemical; details: PHD2 (residues 181-417) 5 nM, 60 min pre-incubation, -log(IC50), IC50 molar
Method in brief: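 Hydroxylated peptide quantified by LC/MS after 60 min turnover of 1 uM biotinylated peptide with 2 uM 2-oxoglutarate and 1 mM ascorbate, stopped by excess tight-binding inhibitor. Beforehand, 5 nM enzyme and compound were preincubated 60 min at RT, pH 7.3 HEPES/KCl/TCEP/FeCl2/BSA buffer. Values as pIC50 (−log molar IC50).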

[2] = tested on: HIF1a protein in H9c2 rat cardiomyocytes; assay: Cell-based HIF-alpha stabilization assay (inhibition of PHD in cells); details: 24 hrs compound incubation, HIF1a protein by ELISA; for EC50: Rattus norvegicus, H9c2, 24 h, read-out: Inhibition of PHD in cells (pEC50) (converted)
Method in brief: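 HIF1a stabilization was measured by ELISA on lysates of H9c2 rat cardiomyocytes after 24 h exposure to 11 serial compound concentrations, expressed relative to the desferrioxamine maximum. Curve fits gave EC50. EC50pos denotes the concentration producing half the desferrioxamine maximal response.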

PHD2 enzyme (residues 181-417), sequence (Q9GZT9 181-417): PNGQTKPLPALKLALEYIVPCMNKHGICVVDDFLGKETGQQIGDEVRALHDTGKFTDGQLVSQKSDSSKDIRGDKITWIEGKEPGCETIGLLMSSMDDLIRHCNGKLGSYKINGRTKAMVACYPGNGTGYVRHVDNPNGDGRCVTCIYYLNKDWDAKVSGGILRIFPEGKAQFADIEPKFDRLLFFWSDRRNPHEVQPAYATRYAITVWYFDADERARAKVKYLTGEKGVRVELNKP

Row | SMILES | PHD Inhibition (pIC50) [1] | EC50 [2] | Inhibition of PHD in cells (pEC50) [2] | IC50 ([1]; read-out: PHD Inhibition (pIC50) (converted))
1 | Cc1cc(C#N)c(F)cc1-c1cnn(-c2ccc(C(=O)N3CCN(C4CC4)CC3)cn2)c1O [Example 308, 4-(1-(5-(4-cyclopropylpiperazine-1-carbonyl)pyridin-2-yl)-5-hydroxy-1H-pyrazol-4-yl)-2-fluoro-5-methylbenzonitrile] | 8.28 | 6610 nM |  | 
2 | CCN1CCN(C(=O)c2ccc(-n3ncc(-c4ccc(C#N)cc4C)c3O)nc2)C[C@@H]1C [Example 370, (S)-4-(1-(5-(4-ethyl-3-methylpiperazine-1-carbonyl)pyridin-2-yl)-5-hydroxy-1H-pyrazol-4-yl)-3-methylbenzonitrile] | 8.287 | 562 nM |  | 
3 | CC(C)OCCCNC(=O)c1ccc(-n2ncc(-c3ccc(C#N)cc3)c2O)nc1 [Example 163, 6-(4-(4-cyanophenyl)-5-hydroxy-1H-pyrazol-1-yl)-N-(3-isopropoxypropyl)nicotinamide] | 7.28 | 1480 nM |  | 
4 | CO[C@H]1CC[C@@H](NC(=O)c2ccc(-n3ncc(-c4ccc(C#N)cc4)c3O)nc2)CC1 [Example 227, 6-(4-(4-cyanophenyl)-5-hydroxy-1H-pyrazol-1-yl)-N-((1s,4s)-4-methoxycyclohexyl)nicotinamide] | 7.38 | 550 nM |  | 
5 | COCC(C)CNC(=O)c1ccc(-n2ncc(-c3ccnc(OC)c3)c2O)nc1 (stereo not drawn) [Example 49, 6-(5-hydroxy-4-(2-methoxypyridin-4-yl)-1H-pyrazol-1-yl)-N-(3-methoxy-2-methylpropyl)nicotinamide] | 7.9 | 871 nM |  | 
6 | COCC1(NC(=O)c2ccc(-n3ncc(-c4ccnc(OC)c4)c3O)nc2)CCCC1 [Example 3, 6-(5-hydroxy-4-(2-methoxypyridin-4-yl)-1H-pyrazol-1-yl)-N-(1-(methoxymethyl)cyclopentyl)nicotinamide] | 7.3 | 724 nM |  | 
7 | N#Cc1ccc(-c2cnn(-c3ccc(C(=O)NCCC4CCOCC4)cn3)c2O)cc1 [Example 174, 6-(4-(4-cyanophenyl)-5-hydroxy-1H-pyrazol-1-yl)-N-(2-(tetrahydro-2H-pyran-4-yl)ethyl)nicotinamide] | 7.31 | 759 nM |  | 
8 | COc1cc(-c2cnn(-c3ccc(C(=O)NCCCN4CCCC4)cn3)c2O)ccn1 [Example 39, 6-(5-hydroxy-4-(2-methoxypyridin-4-yl)-1H-pyrazol-1-yl)-N-(3-(pyrrolidin-1-yl)propyl)nicotinamide] | 7.3 |  | 5.58 | 
9 | N#Cc1ccc(-c2cnn(-c3ccc(C(=O)NCC4CCCO4)cn3)c2O)cc1 (stereo not drawn) [Example 153, 6-(4-(4-cyanophenyl)-5-hydroxy-1H-pyrazol-1-yl)-N-((tetrahydrofuran-2-yl)methyl)nicotinamide] | 7.57 | 1380 nM |  | 
10 | Cc1cc(C#N)ccc1-c1cnn(-c2ccc(C(=O)N3CCN(C4CCC4)CC3)cn2)c1O [Example 373, 4-(1-(5-(4-cyclobutylpiperazine-1-carbonyl)pyridin-2-yl)-5-hydroxy-1H-pyrazol-4-yl)-3-methylbenzonitrile] | 8.00 | 1200 nM |  | 
11 | CN1CCOC(CNC(=O)c2ccc(-n3ncc(-c4ccc(C#N)cc4)c3O)nc2)C1 (stereo not drawn) [Example 111, 6-(4-(4-cyanophenyl)-5-hydroxy-1H-pyrazol-1-yl)-N-((4-methylmorpholin-2-yl)methyl)nicotinamide] | 7.8 | 2140 nM |  | 
12 | COc1cc(C#N)ccc1-c1cnn(-c2ccc(C(=O)NC3CC3)cn2)c1O [Example 232, 6-(4-(4-cyano-2-methoxyphenyl)-5-hydroxy-1H-pyrazol-1-yl)-N-cyclopropylnicotinamide] | 7.01 | 339 nM |  | 
13 | Cc1cc(C#N)ccc1-c1cnn(-c2ccc(C(=O)N(C)C3CC3)cn2)c1O [Example 246, 6-(4-(4-cyano-2-methylphenyl)-5-hydroxy-1H-pyrazol-1-yl)-N-cyclopropyl-N-methylnicotinamide] | 7.8 | 407 nM |  | 
14 | Cc1cc(C#N)ccc1-c1cnn(-c2ccc(C(=O)N3CCN(C4CC4)CC3)cn2)c1O [Example 414, 4-(1-(5-(4-cyclopropylpiperazine-1-carbonyl)pyridin-2-yl)-5-hydroxy-1H-pyrazol-4-yl)-3-methylbenzonitrile] | 8.39 | 832 nM |  | 
15 | CCN(C)[C@H]1CCCN(C(=O)c2ccc(-n3ncc(-c4ccc(C#N)cc4C)c3O)nc2)C1 [Example 384, (S)-4-(1-(5-(3-(ethyl(methyl)amino)piperidine-1-carbonyl)pyridin-2-yl)-5-hydroxy-1H-pyrazol-4-yl)-3-methylbenzonitrile] | 7.93 | 1510 nM |  | 
16 | N#Cc1ccc(-c2cnn(-c3ccc(C(=O)NCC4(F)CCCCC4)cn3)c2O)cc1 [Example 263, 6-(4-(4-cyanophenyl)-5-hydroxy-1H-pyrazol-1-yl)-N-((1-fluorocyclohexyl)methyl)nicotinamide] | 7.22 | 1230 nM |  | 
17 | COCCC(C)NC(=O)c1ccc(-n2ncc(-c3ccc(C#N)cc3)c2O)nc1 (stereo not drawn) [Example 176, 6-(4-(4-cyanophenyl)-5-hydroxy-1H-pyrazol-1-yl)-N-(4-methoxybutan-2-yl)nicotinamide] | 7.53 | 398 nM |  | 
18 | COC1CCN(C(=O)c2ccc(-n3ncc(-c4ccc(C#N)cc4C)c3O)nc2)CC1 [Example 249, 4-(5-hydroxy-1-(5-(4-methoxypiperidine-1-carbonyl)pyridin-2-yl)-1H-pyrazol-4-yl)-3-methylbenzonitrile] | 8.3 | 275 nM |  | 
19 | Cc1cc(C#N)ccc1-c1cnn(-c2ccc(C(=O)N(C)CCN(C)C)cn2)c1O [Example 286, 6-(4-(4-cyano-2-methylphenyl)-5-hydroxy-1H-pyrazol-1-yl)-N-(2-(dimethylamino)ethyl)-N-methylnicotinamide] | 7.94 | 603 nM |  | 
20 | COc1cc(-c2cnn(-c3ccc(C(=O)NCCCO)cn3)c2O)ccn1 [Example 26, 6-(5-hydroxy-4-(2-methoxypyridin-4-yl)-1H-pyrazol-1-yl)-N-(3-hydroxypropyl)nicotinamide] |  | 3630 nM |  | 97.7 nM
21 | CCCN1CCN(C(=O)c2ccc(-n3ncc(-c4ccc(C#N)cc4C)c3O)nc2)CC1 [Example 415, 4-(5-hydroxy-1-(5-(4-propylpiperazine-1-carbonyl)pyridin-2-yl)-1H-pyrazol-4-yl)-3-methylbenzonitrile] | 8.41 |  | 6.20 | 
22 | Cc1cc(C#N)ccc1-c1cnn(-c2ccc(C(=O)NC3CCN(CC(F)(F)F)CC3)cn2)c1O [Example 302, 6-(4-(4-cyano-2-methylphenyl)-5-hydroxy-1H-pyrazol-1-yl)-N-(1-(2,2,2-trifluoroethyl)piperidin-4-yl)nicotinamide] | 8.41 | 288 nM |  | 
23 | N#Cc1ccc(-c2cnn(-c3ccc(C(=O)NCCCN4CCOCC4)cn3)c2O)cc1 [Example 91, 6-(4-(4-cyanophenyl)-5-hydroxy-1H-pyrazol-1-yl)-N-(3-morpholinopropyl)nicotinamide] | 7.18 | 933 nM |  | 
24 | Cc1cc(C#N)ccc1-c1cnn(-c2ccc(C(=O)N[C@H](C)C3CC3)cn2)c1O [Example 138A, (R)-6-(4-(4-cyano-2-methylphenyl)-5-hydroxy-1H-pyrazol-1-yl)-N-(1-cyclopropylethyl)nicotinamide] | 6.95 | 302 nM |  | 
25 | Cc1c(-c2cnn(-c3ccc(C(=O)N4CCC[C@@H](N(C)CC(F)F)C4)cn3)c2O)ccc(C#N)c1F [Example 336, (R)-4-(1-(5-(3-((2,2-difluoroethyl)(methyl)amino)piperidine-1-carbonyl)pyridin-2-yl)-5-hydroxy-1H-pyrazol-4-yl)-2-fluoro-3-methylbenzonitrile] | 8.53 | 977 nM |  | 
26 | COCC(C)CNC(=O)c1ccc(-n2ncc(-c3ccc(C#N)cc3)c2O)nc1 (stereo not drawn) [Example 146, 6-(4-(4-cyanophenyl)-5-hydroxy-1H-pyrazol-1-yl)-N-(3-methoxy-2-methylpropyl)nicotinamide] | 8.3 | 692 nM |  | 
27 | Cc1cc(C#N)ccc1-c1cnn(-c2ccc(C(=O)N3CC(N(C)C4CC4)C3)cn2)c1O [Example 298, 4-(1-(5-(3-(cyclopropyl(methyl)amino)azetidine-1-carbonyl)pyridin-2-yl)-5-hydroxy-1H-pyrazol-4-yl)-3-methylbenzonitrile] | 8.18 | 977 nM |  | 
